Consider 57 molecules from patent US12247045B2, “MAP4K4 inhibitors” (Imperial College Innovations Limited, priority 2018, dated 2025).

Molecules are shown by their SMILES.

T1 sequence (O95819 25-289 limits assumed): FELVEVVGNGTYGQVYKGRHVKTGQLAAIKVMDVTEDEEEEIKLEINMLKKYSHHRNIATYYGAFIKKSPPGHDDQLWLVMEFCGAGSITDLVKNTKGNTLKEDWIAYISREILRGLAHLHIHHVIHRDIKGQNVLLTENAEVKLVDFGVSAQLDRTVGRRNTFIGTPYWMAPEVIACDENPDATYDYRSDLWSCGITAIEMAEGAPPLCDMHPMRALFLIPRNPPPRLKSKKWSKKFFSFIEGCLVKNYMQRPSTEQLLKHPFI

This assay has as its target T1, human MAP4K4 kinase domain (Homo sapiens, UniProt O95819).
T1 construct: 0.5 nM human MAP4K4 kinase domain (Invitrogen); purchased Invitrogen
Kind of assay: MAP4K4 kinase activity, CisBio HTRF Transcreener ADP assay. The class given is biochemical. Particulars: IC50 category; ATP at Km (10 μM), 0.5 nM kinase domain, 2 h; read-out: MAP4K4. From the text:
Compounds of the present invention were screened for their inhibitory activity against MAP4K4, versus selected off-target hits found with early members of this chemical series. MAP4K4 kinase activity was monitored using the CisBio HTRF Transcreener ADP assay, a competitive immunoassay with a reproducible Z′>0.6. In the detection step, endogenous ADP and d2-labeled ADP compete for binding an anti-ADP monoclonal antibody labelled with Eu^3+ cryptate. A ratiometric fluorescent read-out is used at 665 and 620 nm. Reactions were performed in the presence of 1% DMSO with ATP added at Km (10 μM), 0.5 nM human MAP4K4 kinase domain (Invitrogen), 1 μM biotin-myelin basic protein as substrate (Invitrogen), and extension of reaction time to 2 h. Assays were run in Greiner low volume plates with a final reaction volume of 10 μl. The MAP4K4 inhibition data are provided in Table 41 below for selected compounds of the present invention. The data has been categorised based on the IC50 value of the compound as “A”, “B” or “C”. IC50: A≤100 nM; 100 nM<B≤1 μM; 1 μM<C; nd=not determined.
Background: Time-resolved FRET reads energy transfer from a long-lived donor to a nearby acceptor.
Consider `COCCNc1ncc(-c2cn(-c3cccc(F)c3)c3nc[nH]c(=O)c23)cn1` [Ex-31], for which the IC50 was at most 100 nM. As to `Cc1cc(-c2cn(-c3ccccc3)c3c(=O)[nH]cnc23)ccn1` [Ex-130], the IC50 lay within 100 to 1000 nM.

For `O=c1[nH]cnc2c(-c3cccnc3)cn(-c3ccccc3)c12` [Ex-124], the IC50 was 100 to 1000 nM. `COCCNc1ccc(-c2cn(-c3ccccc3)c3nc[nH]c(=O)c23)cn1` [Ex-38]: the IC50 is at most 100 nM.

As to `O=C(C1CC1)N1CC(n2cc(-c3cn(-c4cccnc4)c4nc[nH]c(=O)c34)cn2)C1` [Ex-36], the IC50 was in the range of 100 to 1000 nM. As for `O=c1[nH]cnc2c(-c3ccc4cn[nH]c4c3)cn(-c3ccccc3)c12` [Ex-139, 7-(1H-Indazol-6-yl)-5-phenyl-3,5-dihydro-pyrrolo[3,2-d]pyrimidin-4-one], the IC50 was in the range of 100 to 1000 nM. In the case of `Nc1ccc(-c2cn(-c3ccccc3)c3c(=O)[nH]cnc23)cn1` [Ex-138, 7-(6-aminopyridin-3-yl)-5-phenyl-3,5-dihydro-4H-pyrrolo[3,2-d]pyrimidin-4-one] it was at most 100 nM; in that of `CC(=O)N1CC(n2cc(-c3cn(-c4ccccc4)c4nc[nH]c(=O)c34)cn2)C1` [Ex-60], at most 100 nM. To `CC(C)(O)COc1ccc(-c2cn(-c3ccccc3)c3nc[nH]c(=O)c23)cn1` [Ex-46] belongs at most 100 nM; to `Cn1cnc2cccc(-c3cn(-c4ccccc4)c4c(=O)[nH]cnc34)c21` [Ex-129], over 1000 nM; to `CN(CCC(C)(C)O)c1ccc(-c2cn(-c3ccccc3)c3nc[nH]c(=O)c23)cn1` [Ex-95], at most 100 nM. As for `O=c1[nH]cnc2c1c(-c1cnn(C3CNC3)c1)cn2-c1ccccc1` [Ex-108, 5-(1-Azetidin-3-yl-1H-pyrazol-4-yl)-7-phenyl-3,7-dihydro-pyrrolo[2,3-d]pyrimidin-4-one], the IC50 lay in the range of 100 to 1000 nM. In the case of `CC(C)(O)CCNc1ccc(-c2cn(-c3ccccc3)c3nc[nH]c(=O)c23)cn1` [Ex-94, 5-[6-[(3-hydroxy-3-methyl-butyl)amino]-3-pyridyl]-7-phenyl-3H-pyrrolo[2,3-d]pyrimidin-4-one], the IC50 is at most 100 nM. To `COCCOc1ccc(-c2cn(-c3cncc(F)c3)c3nc[nH]c(=O)c23)cc1` [Ex-85] belongs at most 100 nM. In the case of `CN(C)CCCOc1ccc(-c2cn(-c3cccnc3)c3nc[nH]c(=O)c23)cc1` [Ex-33] it was at most 100 nM; in that of `O=c1[nH]cnc2c(-c3ccc(NC4CC4)nc3)cn(-c3ccccc3)c12` [Ex-135], over 1000 nM; in that of `O=c1[nH]cnc2c1c(-c1ccc(OCCCN3CCOCC3)cc1)cn2-c1cccnc1` [Ex-42], at most 100 nM. To `COCCNc1ncc(-c2cn(-c3ccncc3)c3nc[nH]c(=O)c23)cn1` [Ex-32] belongs 100 to 1000 nM; to `CC(C)(O)COc1ccc(-c2cn(-c3cccnc3)c3nc[nH]c(=O)c23)cc1` [Ex-66, 5-(4-(2-hydroxy-2-methylpropoxy)phenyl)-7-(pyridin-3-yl)-3,7-dihydro-4H-pyrrolo[2,3-d]pyrimidin-4-one], at most 100 nM; to `COCCOc1ccc(-c2cn(-c3cccnc3)c3ncn(COP(=O)(O)O)c(=O)c23)cc1` [Ex-103], over 1000 nM. On to `CC(C)(O)CCOc1ccc(-c2cn(-c3cccnc3)c3ncn(COP(=O)(O)O)c(=O)c23)cc1` [Ex-102, (5-(4-(3-hydroxy-3-methylbutoxy)phenyl)-4-oxo-7-(pyridin-3-yl)-4,7-dihydro-3H-pyrrolo[2,3-d]pyrimidin-3-yl)methyl dihydrogen phosphate], for which the IC50 was over 1000 nM. To `CC(=O)N1CC(n2cc(-c3cn(-c4ccc(F)cc4)c4nc[nH]c(=O)c34)cn2)C1` [Ex-3, 5-[1-(1-Acetyl-azetidin-3-yl)-1H-pyrazol-4-yl]-7-(4-fluoro-phenyl)-3,7-dihydro-pyrrolo[2,3-d]pyrimidin-4-one] belongs 100 to 1000 nM. In the case of `O=c1[nH]cnc2c1c(-c1ccccc1)cn2-c1ccncc1` [Ex-2] it was 100 to 1000 nM.

For `CN1CCN(CCCOc2ccc(-c3cn(-c4cccnc4)c4nc[nH]c(=O)c34)cc2)CC1` [Ex-43], the IC50 was at most 100 nM. In the case of `COCCOc1ccc(-c2cn(-c3cccnc3)c3cc[nH]c(=O)c23)cc1` [Ex-140, 3-[4-(2-Methoxy-ethoxy)-phenyl]-1-pyridin-3-yl-1,5-dihydro-pyrrolo[3,2-c]pyridin-4-one], the IC50 is at most 100 nM. In the case of `COc1ccc(-c2cn(-c3ccccc3)c3nc[nH]c(=O)c23)nn1` [Ex-104, 5-(6-Methoxy-pyridazin-3-yl)-7-phenyl-3,7-dihydro-pyrrolo[2,3-d]pyrimidin-4-one] it was over 1000 nM; in that of `COc1cnc(-c2cn(-c3ccccc3)c3nc[nH]c(=O)c23)cn1` [Ex-107], 100 to 1000 nM; in that of `CC(C)(O)CCOc1ccc(-c2cn(-c3ccccc3)c3nc[nH]c(=O)c23)cn1` [Ex-75], at most 100 nM. Take `CNc1ccc(-c2cn(-c3ccccc3)c3c(=O)[nH]cnc23)cn1` [Ex-134]: the IC50 was over 1000 nM. For the molecule `COCCNc1ccc(-c2cn(-c3cccc(F)c3)c3nc[nH]c(=O)c23)cn1` [Ex-30], the IC50 was at most 100 nM. To `COCCn1cc(-c2cn(-c3ccccc3)c3nc[nH]c(=O)c23)cn1` [Ex-62] belongs at most 100 nM. To `O=c1[nH]cnc2c1c(-c1cccnc1)cn2-c1ccccc1` [Ex-5] belongs at most 100 nM.

For the molecule `CC(C)(C)OC(=O)N1CC(n2cc(-c3cn(-c4ccccc4)c4nc[nH]c(=O)c34)cn2)C1` [Ex-65, 3-[4-(4-oxo-7-phenyl-4,7-dihydro-3H-pyrrolo[2,3-d]pyrimidin-5-yl)-pyrazol-1-yl]-azetidine-1-carboxylic acid tert-butyl ester], the IC50 is at most 100 nM. To `Cc1ccc(-c2cn(-c3ccccc3)c3c(=O)[nH]cnc23)cn1` [Ex-131] belongs over 1000 nM; to `COCCCOc1ccc(-c2cn(-c3cccnc3)c3nc[nH]c(=O)c23)cc1` [Ex-71], at most 100 nM; to `O=c1[nH]cnc2c1c(-c1cnc(N3CC(O)C3)nc1)cn2-c1ccccc1` [Ex-50], 100 to 1000 nM. To `Cc1cc(-n2cc(-c3ccc(OCCC(C)(C)O)cc3)c3c(=O)[nH]cnc32)ccn1` [Ex-82] belongs 100 to 1000 nM. In the case of `Cn1ccc(-c2cn(-c3ccccc3)c3nc[nH]c(=O)c23)n1` [Ex-25] it was over 1000 nM. For `O=c1[nH]cnc2c1c(-c1ccc(OC(F)(F)CO)cc1)cn2-c1cccnc1` [Ex-77], the IC50 was at most 100 nM. As for `O=c1[nH]cnc2c1c(-c1cnn(Cc3ccccc3)c1)cn2-c1ccccc1` [Ex-23], the IC50 is at most 100 nM. In the case of `O=c1cc(-c2cn(-c3ccccc3)c3c(=O)[nH]cnc23)cc[nH]1` [Ex-128] it was 100 to 1000 nM. In the case of `O=c1[nH]cnc2c1c(-c1ccccn1)cn2-c1ccccc1` [Ex-106] it was over 1000 nM.

`O=c1[nH]cnc2c(-c3ccncc3)cn(-c3ccccc3)c12` [Ex-119, 5-Phenyl-7-pyridin-4-yl-3,5-dihydro-pyrrolo[3,2-d]pyrimidin-4-one]: the IC50 is 100 to 1000 nM. To `COCCn1cc(-c2cn(-c3cccc(F)c3)c3nc[nH]c(=O)c23)cn1` [Ex-20] belongs at most 100 nM. On to `COCCCn1cc(-c2cn(-c3ccccc3)c3nc[nH]c(=O)c23)cn1` [Ex-64], for which the IC50 was at most 100 nM.

Take `Cc1noc(C)c1-c1cn(-c2ccccc2)c2nc[nH]c(=O)c12` [Ex-7]: the IC50 was over 1000 nM. To `O=c1[nH]cnc2c1c(-c1ccncc1F)cn2-c1ccccc1` [Ex-61] belongs 100 to 1000 nM; to `CC(C)(O)CCOc1ccc(-c2cn(-c3cccnc3)c3nc[nH]c(=O)c23)cc1F` [Ex-73], at most 100 nM; to `N#Cc1cc(-c2cn(-c3ccccc3)c3nc[nH]c(=O)c23)cnc1N1CC[C@H](O)C1` [Ex-41], at most 100 nM.

Turning to `O=C(C1CC1)N1CC(n2cc(-c3cn(-c4cccc(F)c4)c4nc[nH]c(=O)c34)cn2)C1` [Ex-15], the IC50 was at most 100 nM. To `COC(=O)Cn1cc(-c2cn(-c3ccccc3)c3nc[nH]c(=O)c23)cn1` [Ex-21] belongs at most 100 nM; to `O=c1[nH]cnc2c(-c3cccc4cn[nH]c34)cn(-c3ccccc3)c12` [Ex-117], 100 to 1000 nM. To `CN(CCO)c1ncc(-c2cn(-c3ccccc3)c3nc[nH]c(=O)c23)cc1C#N` [Ex-53] belongs at most 100 nM. To `COc1cc(-n2cc(-c3ccc(OCCC(C)(C)O)cc3)c3c(=O)[nH]cnc32)ccn1` [Ex-83] belongs 100 to 1000 nM; to `O=c1[nH]cnc2c1c(-c1cnn(CCO)c1)cn2-c1cccc(F)c1` [Ex-59], at most 100 nM.

Regarding `COc1cc(-c2cn(-c3ccccc3)c3nc[nH]c(=O)c23)ccn1` [Ex-17], the IC50 was at most 100 nM.

As for `O=c1[nH]cnc2c1c(-c1ccc[nH]1)cn2-c1ccccc1` [Ex-56, 7-Phenyl-5-(1H-pyrrol-2-yl)-3,7-dihydro-pyrrolo[2,3-d]pyrimidin-4-one], the IC50 is at most 100 nM.
